From patent US20230234936A1, “COMPOUND FOR TARGETING AND DEGRADING PROTEIN, AND PREPARATION METHOD THEREFOR AND USE THEREOF” (SHANGHAI LEADINGTAC PHARMACEUTICAL CO., LTD., priority 2020, published 2023) come the findings set out here.

pIC50: −log10 of the molar value.

In one test the target is T1, IRAK4 kinase (Homo sapiens, UniProt Q9NWZ3).
T1 sequence (Q9NWZ3 1-460): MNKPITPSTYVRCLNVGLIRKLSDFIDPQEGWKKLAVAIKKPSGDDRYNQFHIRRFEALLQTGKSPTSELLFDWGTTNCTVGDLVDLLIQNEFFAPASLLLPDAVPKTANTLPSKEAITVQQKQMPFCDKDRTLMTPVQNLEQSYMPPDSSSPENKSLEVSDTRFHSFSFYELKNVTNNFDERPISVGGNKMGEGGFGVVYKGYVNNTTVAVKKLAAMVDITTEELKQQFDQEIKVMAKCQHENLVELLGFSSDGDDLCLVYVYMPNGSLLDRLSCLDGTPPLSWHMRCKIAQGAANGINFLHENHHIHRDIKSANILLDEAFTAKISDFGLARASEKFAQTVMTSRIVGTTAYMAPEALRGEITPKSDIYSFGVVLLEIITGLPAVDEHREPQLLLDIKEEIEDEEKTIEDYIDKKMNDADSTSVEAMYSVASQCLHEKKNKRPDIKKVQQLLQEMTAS
As to the kind of experiment: IRAK4 kinase activity test (KinEASE-STK S1 HTRF kit). The note with it: 2.5 nM kinase, 1 μM biotinylated polypeptide substrate, 7 μM ATP, 37° C. 120 min. The class given is biochemical. An outline of the steps: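 Compound in DMSO, serially diluted to 10000–0.038 nM final, incubated with 2.5 nM kinase, 1 μM biotinylated peptide substrate and 7 μM ATP at 37° C for 120 min. Eu-anti-phospho-Ser/Thr antibody plus streptavidin-XL665 stopped the reaction (1 h RT). HTRF 665/620 nm ratio gave % inhibition versus control; IC50 from nonlinear log-concentration fit.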

For test [1], the target named is T2, IRAK4 protein in THP-1 cells (Homo sapiens, UniProt Q9NWZ3).
T2 construct: endogenous in cells; host or cells: THP-1
T2 sequence (Q9NWZ3 1-460): T1 sequence (Q9NWZ3 1-460)
Briefly: Degradation of IRAK4 in THP-1 cells (Western blot). In kind it is cell-based. As to conditions: 24 hours, compound 1-3000 nM. Put shortly: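 THP-1 cells (5×10^5/well) treated 24 h with compound at 1–3000 nM final. IRAK4 in lysates quantified by Western blot, normalized to internal reference and compared with control to give degradation rate; DC50 and Dmax from nonlinear fit of log concentration.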

The subject of test [2] is Interleukin-6 (IL-6) in LPS-induced human PBMC. Briefly: Cytokine secretion of LPS-induced human PBMC, IL-6 AlphaLISA detection. In kind it is cell-based. The note with it: inhibition of IL-6, compound 1 hour or 20 hours, then LPS 100 ng/mL 5 hours. As for the experimental part: Frozen human PBMC (Milestone, PB010C) was resuspended to RPMI 1640 medium (Gibco, A1049101) after resuscitation, supplemented with 10% fetal bovine serum (Gibco, 10099141), 100 U/mL penicillin and 100 μg/mL streptomycin (Gibco, 15140122). On the same day, 150 μL of PBMC was spread in each well of a 96-well transparent cell plate (Labserv, 310109008), so that the cell density was 2×10^5 cells/well. Then 50 μL diluted compound solution was added to the corresponding cell-covered wells to make the final concentration of the compound in the range of 0.026-10000 nM. The final concentration of DMSO was 0.25%. After the drug-treated cell plate was cultured at 37° C. for 1 hour or 20 hours in a 5% CO2 incubator, 10 μL LPS (0111:B4) (Sigma, L4391) was added with a final concentration of 100 ng/mL. The cell plate was again placed in a 5% CO2 incubator at 37° C. for 5 hours, centrifuged at 2000 rpm for 10 minutes, and 100 μL cell supernatant was taken from each well and transferred to a new 96-well transparent cell plate for cytokine concentration test, which was frozen at −80° C. to be tested.
The concentration of IL-6 in the supernatant of LPS-induced human PBMC cells was determined using interleukin-6 (IL-6) AlphaLISA detection kit (PerkinElmer, AL223 C).
According to the product instructions, IL-6 standard solutions with different concentrations were prepared in the concentration range of […]. 2 μL of IL-6 standard solution at various concentrations and the cell supernatant sample to be tested were taken, respectively added to white 384 well plates (PerkinElmer, 6007299), then a mixed solution of 8 μL of 5× anti-IL-6 receptor beads (final concentration: 10 μg/mL) and biotin-labeled anti-IL-6 antibody (final concentration 1 nM) was added to each well, and incubated at 23° C. for 60 minutes. Finally, 10 μL of 2× streptavidin-labeled donor beads (final concentration: 40 μg/mL) were added to each well and incubated at 23° C. for 30 minutes in the absent of light. After the incubation, the AlphaLISA signal value was determined in the AlphaScreen standard setting mode on the microplate reader EnVision(PerkinElmer, 2105). The standard curve was drawn by the AlphaLISA signal value of each concentration IL-6 standard solution, and then based on the corresponding concentration on the standard curve for the AlphaLISA signal value of the sample to be tested, the IL-6 concentration of each cell lysis supernatant was determined. Compared with the IL-6 concentration of the control group, the inhibition rate of the compound at each concentration was calculated, and then IC50 value of the compound was calculated by fitting the nonlinear curve with the logarithmic concentration-inhibition rate by GraphPad Prism 7.

`COc1cc2nn(C3CCN(CC4CCC5(CC4)CCN(C(=O)c4ccc(Cl)c(N6CCC(=O)NC6=O)c4)CC5)CC3)cc2cc1NC(=O)c1cccc(C(F)(F)F)n1` [Example 32]: the pIC50 against IRAK4 kinase is 7.55; in test [2], 8.01. The compound further yielded a DC50 in test [1] of 5.1 nM. In test [1], the Dmax worked out at 96.9%.
For `CC(C)(O)c1cc2nn(C3CCN(CC4CCC5(CC4)CCN(C(=O)c4ccc(F)c(C6CCC(=O)NC6=O)c4)CC5)CC3)cc2cc1NC(=O)c1cccc(C(F)(F)F)n1` (stereo not shown) [Example 41, N-(2-(1-((3-(3-(2,6-dioxopiperidin-3-yl)-4-fluoro-benzoyl)-3-azaspiro [5.5]undec-9-yl)methyl)piperidin-4-yl)-6-(2-hydroxyprop-2-yl)-2H-inda-zol-5-yl)-6-(triflu-oromethyl) pyridinecarbox-amide], in that order: 7.55, 8.29, 2.9 nM and 97.7%.
For `COc1cc2nn([C@H]3CC[C@H](N(C)C4CCC5(CC4)CCN(C(=O)c4ccc(Cl)c(N6CCC(=O)NC6=O)c4)CC5)CC3)cc2cc1NC(=O)c1cccc(C(F)(F)F)n1` [Example 56], in that order: 8.44, 8.49, 3 nM and 97%.
For `CC(C)(O)c1cc2nn(C3CCN(CCC4CCC5(CC4)CCN(C(=O)c4ccc(Cl)c(N6CCC(=O)NC6=O)c4)CC5)CC3)cc2cc1NC(=O)c1cccc(C(F)(F)F)n1` [Example 28, N-(2-(1-(2-(3-(4-chloro-3-(2,4-dioxotetrahydro-pyrimidin-1 (2H)-yl)benzoyl)-3-azaspiro [5.5]undec-9-yl)ethyl)piperidin-4-yl)-6-(2-hydroxyprop-2-yl)-2H-indazol-5-yl)-6-(trifluoro-methyl) pyridinecarbox-amide], in that order: 7.79, 8.33, 0.8 nM and 99.4%.
Take `CN(CCC1CCN(C(=O)c2ccc(Cl)c(N3CCC(=O)NC3=O)c2)CC1)C[C@H]1CC[C@H](n2cc3cc(NC(=O)c4cccc(C(F)(F)F)n4)c(C(C)(C)O)cc3n2)CC1` [Example 55, N-(2-((1r,4r)-4-(((2-(1-(4-chloro-3-(2,4-dioxotetrahydro-pyrimidin-1 (2H)-yl)benzoyl)piperidin-4-yl)ethyl) (methyl)amino)methyl)cyclohexyl)-6-(2-hydroxyprop-2-yl)-2H-indazol-5-yl)-6-(trifluoro-methyl) pyridinecarbox-amide]: the pIC50 against IRAK4 kinase was 7.97. In test [1], this compound displayed a DC50 of 2.7 nM and a Dmax of 98.1%. The same compound showed a pIC50 in test [2] of 9.10.
For `COc1cc2nn([C@H]3CC[C@H](CCN4CCC5(CC4)CCN(C(=O)c4ccc(Cl)c(N6CCC(=O)NC6=O)c4)CC5)CC3)cc2cc1NC(=O)c1cccc(C(F)(F)F)n1` [Example 54, N-(2-((1r,4r)-4-(2-(9-(4-chloro-3-(2,4-dioxo-tetrahydropyrim-idin-1 (2H)-yl)benzoyl)-3,9-diazaspiro[5.5]undec-3-yl)ethyl)cyclohexyl)-6-methoxy-2H-inda-zol-5-yl)-6-(tri-fluoromethyl) pyridinecarbox-amide], in that order: 8.12, 1.4 nM, 98.9% and 8.59.
As for `COc1cc2nn([C@H]3CC[C@H](CN(C)C4CCC5(CC4)CCN(C(=O)c4ccc(Cl)c(N6CCC(=O)NC6=O)c4)CC5)CC3)cc2cc1NC(=O)c1cccc(C(F)(F)F)n1` [Example 53, N-(2-((1r,4r)-4-(((3-(4-chloo-3-(2,4-dioxotetrahydro-pyrimidin-1 (2H)-yl)benzoyl)-3-azaspiro [5.5]undec-9-yl) (methyl)amino)methyl)cyclohexyl)-6-methoxy-2H-inda-zol-5-yl)-6-(triflu-oromethyl) pyridinecarbox-amide], the pIC50 at IRAK4 kinase is 8.20. In test [1], this compound showed a DC50 of 5.9 nM and a Dmax of 96.3%. This compound showed a pIC50 in test [2] of 8.55.
Regarding `CC(C)(O)c1cc2nn(C3CCN(CC4CC5(CCN(C(=O)c6ccc(Cl)c(N7CCC(=O)NC7=O)c6)CC5)C4)CC3)cc2cc1NC(=O)c1cccc(C(F)(F)F)n1` [Example 36, N-(2-(1-((7-(4-chloro-3-(2,4-dioxotetrahydro-pyrimidin-1 (2H)-yl)benzoyl)-7-azaspiro [3.5]non-2-yl)methyl)piperdin-4-yl)-6-(2-hydroxyprop-2-yl)-2H-indazol-5-yl)-6-(trifluoro-methyl) pyridinecarbox-amide], the pIC50 against IRAK4 kinase was 7.93. In test [1], this compound showed a DC50 of 4 nM and a Dmax of 92.5%.
For `COc1cc2nn([C@H]3CC[C@H](N4CCC5(CCN(C(=O)c6ccc(Cl)c(N7CCC(=O)NC7=O)c6)CC5)CC4)CC3)cc2cc1NC(=O)c1cccc(C(F)(F)F)n1` [Example 58, N-(2-((1r,4r)-4-(9-(4-chloro-3-(2,4-dioxotetrahydro-pyrimidin-1 (2H)-yl)benzoyl)-3,9-diazaspiro[5.5]undec-3-yl)cyclohexyl)-6-methoxy-2H-inda-zol-5-yl)-6-(triflu-oromethyl) pyridinecarbox-amide], on IRAK4 kinase, the pIC50 was 8.37. In test [1], this compound gave a DC50 of 7.6 nM and a Dmax of 92.1%.
For `CC(C)(O)c1cc2nn(C3CCN(CC4CCC5(CC4)CCN(C(=O)c4ccc(F)c(N6CCC(=O)NC6=O)c4)CC5)CC3)cc2cc1NC(=O)c1cccc(C(F)(F)F)n1` [Example 45, N-(2-(1-((3-(3-(2,4-dioxotetrahydro-pyrimidin-1 (2H)-yl)-4-fluoro-benzoyl)-3-azaspiro[5.5]undec-9-yl)methyl)piperidin-4-yl)-6-(2-hydroxyprop-2-yl)-2H-indazol-5-yl)-6-(trifluoro-methyl) pyridinecarbox-amide], in that order: 7.63, 1.9 nM and 98.2%.
For `COc1ccc(C(=O)N2CCC3(CCC(CN4CCC(n5cc6cc(NC(=O)c7cccc(C(F)(F)F)n7)c(C(C)(C)O)cc6n5)CC4)CC3)CC2)cc1N1CCC(=O)NC1=O` [Example 33, N-(2-(1-((3-(3-(2-4-dioxotetrahydro-pyrimidin-1 (2H)-yl)-4-me-thoxybenzoyl)-3-azaspiro [5.5]undec-9-yl)methyl)piperdin-4-yl)-6-(2-hydroxyprop-2-yl)-2H-indazol-5-yl)-6-(trifluoro-methyl) pyridinecarbox-amide], at IRAK4 kinase, the negative logarithm of the IC50 (pIC50) is 7.76. In test [1], this compound showed a DC50 of 2.1 nM and a Dmax of 96.6%.
